Biological target: T1, Human orexin receptor type 2 (Homo sapiens, UniProt O43614)
T1 construct: expressed in transfected cells; host or cells: CHO cells (transient expression)
T1 sequence (O43614 1-444): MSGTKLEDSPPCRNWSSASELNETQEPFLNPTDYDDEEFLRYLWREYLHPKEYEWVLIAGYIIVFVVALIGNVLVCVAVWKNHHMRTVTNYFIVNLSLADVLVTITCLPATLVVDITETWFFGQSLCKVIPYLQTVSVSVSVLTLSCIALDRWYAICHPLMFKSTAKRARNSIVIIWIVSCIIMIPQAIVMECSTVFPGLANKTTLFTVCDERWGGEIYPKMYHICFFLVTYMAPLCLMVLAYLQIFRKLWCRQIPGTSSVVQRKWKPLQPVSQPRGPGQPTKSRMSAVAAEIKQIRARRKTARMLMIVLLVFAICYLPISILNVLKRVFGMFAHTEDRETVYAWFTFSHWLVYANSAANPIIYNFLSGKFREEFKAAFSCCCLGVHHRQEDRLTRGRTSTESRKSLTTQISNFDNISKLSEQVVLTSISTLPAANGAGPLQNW
Test: Test 1: Evaluation of agonist activity for orexin receptor type 2 (aequorin luminescence, intracellular calcium mobilization in CHO cells)
Format: cell-based
Conditions: relative percentage of luminescence for the luminescence (100%) of Orexin A (100 pM); CHO cells transiently expressing human orexin receptor type 2 and apoaequorin; Orexin A Lot. 641114
Procedure: Test 1: Evaluation of Agonist Activity for Orexin Receptor Type 2
Human orexin receptor type 2 and apoaequorin were transiently expressed in CHO cells, and the agonist activity was evaluated based on intracellular calcium mobilization with ligand stimulation. The CHO cells transiently-expressed human orexin receptor type 2 and apoaequorin were seeded on a 384-well plate by 2,000 cells/well, and then incubated for 16-22 hours. After the plate was returned to room temperature, Coelenterazine hcp (final concentration: 1 μM) was added to the plate, and the plate was allowed to stand at room temperature for 2 hours. And then, Orexin A (PEPTIDE INSTITUTE, INC., Lot. 641114) or each test compound was added to the plate, and the luminescence of the cells was measured with FDSS7000 (Hamamatsu Photonics K.K.), wherein Orexin A and each test compound were dissolved in DMSO (final concentration: 0.1%), and diluted with a buffer (Hanks, 20 mM HEPES, 0.1% BSA). The agonist activity of each test compound for orexin receptor type 2 was calculated as relative percentage of luminescence for the luminescence (100%) of Orexin A (100 pM).

| SMILES | agonist activity (%) |
| --- | --- |
| CC(C)c1ccc(C2=CCCCC2NC(=O)N2CCC(C)(c3cc(C4CC4)on3)CC2)cn1 (racemic) [Example 15, rac-4-(5-cyclopropyl-1,2-oxazol-3-yl)-4-methyl-N-{2-[6-(propan-2-yl)pyridin-3-yl]cyclohex-2-en-1-yl}piperidine-1-carboxamide] | 62 |
| CC(C)c1ccc(C2=CCCCC2NC(=O)N2CCC(C)(c3noc(C4CC4)n3)CC2)cn1 (racemic) [Example 16, rac-4-(5-cyclopropyl-1,2,4-oxadiazol-3-yl)-4-methyl-N-{2-[6-(propan-2-yl)pyridin-3-yl]cyclohex-2-en-1-yl}piperidine-1-carboxamide] | 39 |
| CCN1CCN([C@H]2CCCC[C@@H]2NC(=O)N2CCC(c3ccc(C)cc3)CC2)CC1 (racemic) [Example 17, rac-N-[(1S,2S)-2-(4-Ethylpiperazin-1-yl)cyclohexyl]-4-(4-methylphenyl)piperidine-1-carboxamide] | 72 |
| CC(C)N1CC=C(C2=CCCCC2NC(=O)N2CCC(C)(c3noc(C4CC4)n3)CC2)CC1 (racemic) [Example 18, rac-4-(5-Cyclopropyl-1,2,4-oxadiazol-3-yl)-4-methyl-N-{2-[1-(propan-2-yl)-1,2,3,6-tetrahydropyridin-4-yl]cyclohex-2-en-1-yl}piperidine-1-carboxamide] | 73 |
| CC(C)N1CCN([C@H]2CCCC(F)(F)[C@@H]2NC(=O)N2CCC(C)(c3noc(C4CC4)n3)CC2)CC1 (racemic) [Example 19, rac-4-(5-Cyclopropyl-1,2,4-oxadiazol-3-yl)-N-{(1R,6S)-2,2-difluoro-6-[4-(propan-2-yl)piperazin-1-yl]cyclohexyl}-4-methylpiperidine-1-carboxamide] | 167 |
| CC(C)N1CCN([C@H]2CCCC(F)(F)[C@@H]2NC(=O)N2CCC(C)(c3cc(C4CC4)on3)CC2)CC1 (racemic) [Example 20, rac-4-(5-cyclopropyl-1,2-oxazol-3-yl)-N-{(1R,6S)-2,2-difluoro-6-[4-(propan-2-yl)piperazin-1-yl]cyclohexyl}-4-methylpiperidine-1-carboxamide] | 160 |
| CC(C)N1CCN([C@H]2CCCC(F)(F)[C@@H]2NC(=O)N2CCC(C)(c3nc4ccccc4o3)CC2)CC1 (racemic) [Example 21, rac-4-(1,3-benzoxazol-2-yl)-N-{(1R,6S)-2,2-difluoro-6-[4-(propan-2-yl)piperazin-1-yl]cyclohexyl}-4-methylpiperidine-1-carboxamide] | 153 |
| CC(C)N1CCN([C@H]2CCCC(F)(F)[C@@H]2NC(=O)N2CCC(C)(C3CCCC3)CC2)CC1 (racemic) [Example 26, rac-4-cyclopentyl-N-{(1R,6S)-2,2-difluoro-6-[4-(propan-2-yl)piperazin-1-yl]cyclohexyl}-4-methylpiperidine-1-carboxamide] | 198 |
| CC(C)N1CCN([C@H]2CCCC(F)(F)[C@@H]2NC(=O)N2CCC(C)(c3nc4c(o3)CCCC4)CC2)CC1 (racemic) [Example 27, rac-N-{(1R,6S)-2,2-difluoro-6-[4-(propan-2-yl)piperazin-1-yl]cyclohexyl}-4-methyl-4-(4,5,6,7-tetrahydro-1,3-benzoxazol-2-yl)piperidine-1-carboxamide] | 162 |
| CCc1nc(C2(C)CCN(C(=O)N[C@@H]3[C@@H](N4CCN(C(C)C)CC4)CCCC3(F)F)CC2)no1 (racemic) [Example 28, rac-N-{(1R,6S)-2,2-difluoro-6-[4-(propan-2-yl)piperazin-1-yl]cyclohexyl}-4-(5-ethyl-1,2,4-oxadiazol-3-yl)-4-methylpiperidine-1-carboxamide] | 190 |
| CC(C)N1CCN([C@H]2CCCC(F)(F)[C@@H]2NC(=O)N2CCC(C)(c3ncn(C4CC4)n3)CC2)CC1 (racemic) [Example 29, rac-4-(1-cyclopropyl-?H-1,2,4-triazol-3-yl)-N-{(1R,6S)-2,2-difluoro-6-[4-(propan-2-yl)piperazin-1-yl]cyclohexyl}-4-methylpiperidine-1-carboxamide] | 109 |
| CC(C)N1CCN([C@H]2CCCC(F)(F)[C@@H]2NC(=O)N2CCC(C)(C3CCC(F)(F)CC3)CC2)CC1 (racemic) [Example 30, rac-4-(4,4-difluorocyclohexyl)-N-{(1R,6S)-2,2-difluoro-6-[4-(propan-2-yl)piperazin-1-yl]cyclohexyl}-4-methylpiperidine-1-carboxamide] | 128 |
| CC(C)N1CCN([C@H]2CCCC(F)(F)[C@@H]2NC(=O)N2CCC(C)(c3nsc(C4CC4)n3)CC2)CC1 (racemic) [Example 31, rac-4-(5-cyclopropyl-1,2,4-thiadiazol-3-yl)-N-{(1R,6S)-2,2-difluoro-6-[4-(propan-2-yl)piperazin-1-yl]cyclohexyl}-4-methylpiperidine-1-carboxamide] | 168 |
| CC(C)N1CCN([C@H]2CCCC(F)(F)[C@@H]2NC(=O)N2CCC(c3ccccn3)CC2)CC1 (racemic) [Example 32, rac-N-{(1R,6S)-2,2-difluoro-6-[4-(propan-2-yl)piperazin-1-yl]cyclohexyl}-4-(pyridin-2-yl)piperidine-1-carboxamide] | 176 |
| CC(C)N1CCN([C@H]2CCCC(F)(F)[C@@H]2NC(=O)N2CCC3(CCCC3)CC2)CC1 (racemic) [Example 33, rac-N-{(1R,6S)-2,2-difluoro-6-[4-(propan-2-yl)piperazin-1-yl]cyclohexyl}-8-azaspiro[4.5]decane-8-carboxamide] | 123 |
| CC(C)N1CCN([C@H]2CCCC(F)(F)[C@@H]2NC(=O)N2CCC(C)(c3nnc(C4CC4)s3)CC2)CC1 (racemic) [Example 34, rac-4-(5-cyclopropyl-1,3,4-thiadiazol-2-yl)-N-{(1R,6S)-2,2-difluoro-6-[4-(propan-2-yl)piperazin-1-yl]cyclohexyl}-4-methylpiperidine-1-carboxamide] | 183 |
| CC(C)N1CCN([C@H]2CCCC(F)(F)[C@@H]2NC(=O)N2CCC(C3CCCCC3)CC2)CC1 (racemic) [Example 35, rac-4-cyclohexyl-N-{(1R,6S)-2,2-difluoro-6-[4-(propan-2-yl)piperazin-1-yl]cyclohexyl}piperidine-1-carboxamide] | 165 |
| CC(C)N1CCN([C@H]2CCCC(F)(F)[C@@H]2NC(=O)N2CCC(c3ncccn3)CC2)CC1 (racemic) [Example 36, rac-N-{(1R,6S)-2,2-difluoro-6-[4-(propan-2-yl)piperazin-1-yl]cyclohexyl}-4-(pyrimidin-2-yl)piperidine-1-carboxamide] | 114 |
| CC(C)N1CCN([C@H]2CCCC(F)(F)[C@@H]2NC(=O)N2CCC(O)(c3ccccn3)CC2)CC1 (racemic) [Example 37, rac-N-{(1R,6S)-2,2-difluoro-6-[4-(propan-2-yl)piperazin-1-yl]cyclohexyl}-4-hydroxy-4-(pyridin-2-yl)piperidine-1-carboxamide] | 45 |
